Results as given in patent US20040102423A1, “Spironolactone and angiotensin II antagonist combination therapy for treatment of congestive heart failure” (G.D. Searle & Co., priority 1995, published 2004).
Like-named read-outs stand apart in the source and are kept apart here.

How the values were obtained:
[1] = biological target: angiotensin II AT1 receptor; assay: Assay A: Angiotensin II binding activity, rat uterine membrane preparation, 125I-AII displacement
Description: Assay A: Antiotensin II Binding Activity
Compounds of the invention were tested for ability to bind to the smooth muscle angiotensin II receptor using a rat uterine membrane preparation. […] Rat uterine membranes were prepared from fresh tissue. All procedures were carried out at 4° C. Uteri were stripped of fat and homogenized in phosphate-buffered saline at pH 7.4 containing 5 mM EDTA. The homogenate was centrifuged at 1500×g for 20 min., and the supernatant was recentrifuged at 100,000×g for 60 min. The pellet was resuspended in buffer consisting of 2 mM EDTA and 50 mM Tris-HCl (pH 7.5) to a final protein concentration of 4 mg/ml. […] The reaction was initiated by the addition of membrane protein and the mixture was incubated at 25° C. for 60 min. The incubation was terminated with ice-cold 50 mM Tris-HCl (pH 7.5) and the mixture was filtered to separate membrane-bound labelled peptide from the free ligand. The incubation tube and filter were washed with ice-cold buffer. Filters were assayed for radioactivity in a Micromedic gamma counter. Nonspecific binding was defined as binding in the presence of 10 μM of unlabelled AII. Specific binding was calculated as total binding minus nonspecific binding. […] Binding data were analyzed by a nonlinear least-squares curve fitting program.

pressor response to AII = assay: Assay C: In vivo intragastric pressor assay response for AII antagonists; parameters: species or system Sprague-Dawley rats; settings: for inhibition in vivo at 30 mg/kg: read-out: Assay C Inhibition
rabbit aortic rings = assay: Assay B: In vitro vascular smooth muscle response for AII (antagonist activity, pA2); format: cell-based; settings: Oryctolagus cuniculus, two values in a cell = two determinations
Description: Assay B: In Vitro Vascular Smooth Muscle-Response for AII
The compounds of the invention were tested for antagonist activity in rabbit aortic rings. Male New Zealand white rabbits (2-2.5 kg) were sacrificed using an overdose of pentobarbital and exsanguinated via the carotid arteries. The thoracic aorta was removed, cleaned of adherent fat and connective tissue and then cut into 3-mm ring segments. The endothelium was removed from the rings by gently sliding a rolled-up piece of filter paper into the vessel lumen. The rings were then mounted in a water-jacketed tissue bath, maintained at 37° C., between moveable and fixed ends of a stainless steel wire with the moveable end attached to an FT03 Grass transducer coupled to a Model 7D Grass Polygraph for recording isometric force responses. The bath was filled with 20 ml of oxygenated (95% oxygen/5% carbon dioxide) Krebs solution of the following composition (mM): 130 NaCl, 15 NaHCO3, […], 1.2 NaH2PO4, 1.2 MgSO4, 2.5 CaCl2, and 11.4 glucose. The preparations were equilibrated for one hour before approximately one gram of passive tension was placed on the rings. Angiotensin II concentration-response curves were then recorded (3×10^−10 to 1×10^−5 M). Each concentration of AII was allowed to elicit its maximal contraction, and then AII was washed out repeatedly for 30 minutes before rechallenging with a higher concentration of AII. Aorta rings were exposed to the test antagonist at 10^−5 M for 5 minutes before challenging with AII. Adjacent segments of the same aorta ring were used for all concentration-response curves in the presence or absence of the test antagonist. The effectiveness of the test compound was expressed in terms of pA2 values and were calculated according to H. O. Schild [Br. J. Pharmacol. Chemother., 2, 189-206 (1947)]. The pA2 value is […] which increases the EC50 value for AII by a factor of two. Each test antagonist was evaluated in aorta rings from two rabbits.

[2] = Rattus norvegicus, po, in vivo pressor response, 3 mg/kg intragastrically
[3] = in vivo pressor response, 3 mg/kg intragastrically
[4] = Rattus norvegicus, intraduodenal, in vivo pressor response, 30 mg/kg intraduodenally
[5] = in vivo pressor response, 30 mg/kg intraduodenally

Row | IC50 [1] | SMILES | inhibition in vivo at 3 mg/kg (pressor response to AII; [2]) | Assay C Duration (pressor response to AII; [3]) | further results
1 | 14 nM | CCCCc1nc(-c2ccccc2)n(Cc2ccc(-c3ccccc3-c3nnn[nH]3)nc2)n1 [Compound 271] | 20% |  | 
2 | 20 nM | CCCCn1cc(CCC(C)C)n(Cc2ccc(-c3ccccc3-c3nnn[nH]3)nc2)c1=O [Compound 200] | 45% | >180 min | 
3 | 25 nM | CCCCc1nc(C(=O)N(C)C(C)(C)C)n(Cc2ccc(-c3ccccc3-c3nnn[nH]3)nc2)n1 [Compound 267] | 25% | >180 min | 
4 | 14 nM | CCCCc1cn(CCC2=CCCC2)c(=O)n1Cc1ccc(-c2ccccc2-c2nnn[nH]2)nc1 [Compound 223] | 20% | >180 min | 
5 | 22 nM | CCCCc1cn(CC(C)C)c(=O)n1Cc1ccc(-c2ccccc2-c2nnn[nH]2)nc1 [Compound 208] | 50% | >180 min | 
6 | 27 nM | CCn1nc(C(C)(F)F)nc1Cc1ccc(-c2ccccc2-c2nnn[nH]2)nc1 [Compound 175] | 0% | 0 min | 
7 | 4.9 nM | CCCCc1cn(CCCC)c(=O)n1Cc1ccc(-c2cnccc2-c2nnn[nH]2)cc1 [Compound 236] | 70% | >180 min | 
8 | 16 nM | CCCCn1cc(CCC2CC2)n(Cc2ccc(-c3ccccc3-c3nnn[nH]3)nc2)c1=O [Compound 204] | 75% | >180 min | 
9 | 520 nM | CCCCc1nc(C(=O)NC)nn1Cc1ccc(-c2ccccc2-c2nnn[nH]2)nc1 [Compound 268] | 0% |  | 
10 | 23 nM | CCCCc1cn(C(C)(C)C)c(=O)n1Cc1ccc(-c2ccccc2-c2nnn[nH]2)nc1 [Compound 212] | 15% | 180 min | 
11 | 19 nM | CCCCc1cn(-c2ccccc2OC)c(=O)n1Cc1ccc(-c2ccccc2-c2nnn[nH]2)nc1 [Compound 229] | 40% | >180 min | 
12 |  | CCCCc1nc(C(F)(F)C(F)(F)C(F)(F)F)nn1Cc1ccc(-c2ccccc2-c2nnn[nH]2)cc1 [Compound 81] |  |  | Kb (rabbit aortic rings): 10 nM
13 | 9.4 nM | CCCCc1cn(CCC2CC2)c(=O)n1Cc1ccc(-c2ccccc2-c2nnn[nH]2)nc1 [Compound 217] | 65% | >180 min | 
14 | 2.6 nM | CCCCc1cn(-c2ccccc2C(C)C)c(=O)n1Cc1ccc(-c2ccccc2-c2nnn[nH]2)nc1 [Compound 230] | 25% | >180 min | 
15 | 97 nM | CCCCc1nc(-c2ccccc2C)nn1Cc1ccc(-c2ccccc2-c2nnn[nH]2)nc1 [Compound 272] | 70% | >180 min | 
16 | 5 nM | CCCCc1cn(CCCC)c(=O)n1Cc1ccc(-c2ccccc2-c2nnn[nH]2)cn1 [Compound 234] | 20% |  | 
17 | 20 nM | CCCn1nc(C(F)(F)CCC)nc1Cc1ccc(-c2ccccc2-c2nnn[nH]2)nc1 [Compound 180] | 25% | 180 min | 
18 | 3.6 nM | CCCCc1cn(-c2c(F)cccc2F)c(=O)n1Cc1ccc(-c2ccccc2-c2nnn[nH]2)nc1 [Compound 231] | 75% | >180 min | 

Row | IC50 [1] | SMILES | inhibition in vivo at 3 mg/kg (pressor response to AII; [2]) | Assay C Duration (pressor response to AII; [3]) | further results
19 | 4.4 nM | CCCCc1cn(-c2cccn2CC)c(=O)n1Cc1ccc(-c2ccccc2-c2nnn[nH]2)nc1 [Compound 249] | 20% | >180 min | 
20 | 6.9 nM | CCCCc1cn(-c2c(OC)cccc2OC)c(=O)n1Cc1ccc(-c2ccccc2-c2nnn[nH]2)nc1 [Compound 241] | 40% | >180 min | 
21 | 1.7 nM | CCCCc1cn(CCCC)c(=O)n1Cc1ccc(-c2cccnc2-c2nnn[nH]2)cc1 [Compound 238] | 15% | >180 min | 
22 | 28 nM | CCCCn1nc(C(=O)CCC)nc1Cc1ccc(-c2ccccc2-c2nnn[nH]2)nc1 [Compound 171] | 0% | 0 min | 
23 | 4.5 nM | CCCCc1cn(-c2ccccc2C)c(=O)n1Cc1ccc(-c2ccccc2-c2nnn[nH]2)nc1 [Compound 228] | 80% | >180 min | 
24 | 26 nM | CCCCn1nc(C(O)CCC)nc1Cc1ccc(-c2ccccc2-c2nnn[nH]2)nc1 (stereo not shown) [Compound 170] | 40% | >180 min | 
25 |  | CCCCc1nc2cnncc2n1Cc1ccc(-c2ccccc2-c2nnn[nH]2)cc1 [Compound 128] |  |  | Kb (rabbit aortic rings): 2.34 nM
26 | 26 nM | CCCCn1nc(C(C)(F)F)nc1Cc1ccc(-c2ccccc2-c2nnn[nH]2)nc1 [Compound 177] | 15% | 180 min | 
27 | 4.1 nM | CCCCc1nc(CCCC)n(Cc2ccc(-c3ncccc3-c3nnn[nH]3)cc2)n1 [Compound 256] | 30% | >180 min | 
28 | 13 nM | CCCCc1nc(CCCC)n(Cc2ccc(-n3ccc(-c4nnn[nH]4)c3)cc2)n1 [Compound 153] | 25% | >180 min | 
29 | 7 nM | CCCCc1cn(CCc2cccs2)c(=O)n1Cc1ccc(-c2ccccc2-c2nnn[nH]2)nc1 [Compound 220] | 75% | 120 min | 
30 | 4.8 nM | CCCCc1cn(CCc2ccccc2)c(=O)n1Cc1ccc(-c2ccccc2-c2nnn[nH]2)nc1 [Compound 221] | 25% | >180 min | 
31 | 21 nM | CCCCn1nc(C(F)(F)CCC)nc1Cc1ccc(-c2ccccc2-c2nnn[nH]2)nc1 [Compound 181] | 20% | 180 min | 
32 | 43 nM | CCCCc1nc(CCCC)n(Cc2ccc(-c3ccccc3-c3nnn[nH]3)cn2)n1 [Compound 250] | 0% |  | 
33 |  | CCCCc1nc2c(O)nnc(CCC)c2n1Cc1ccc(-c2ccccc2-c2nnn[nH]2)cc1 [Compound 125] | 35% | >240 min | 
34 | 38 nM | CCCCn1nc(C(OC)OC)nc1Cc1ccc(-c2ccccc2-c2nnn[nH]2)nc1 [Compound 186] | 25% | 18 min | 
35 | 11 nM | CCCCn1nc(C(C)(OC)OC)nc1Cc1ccc(-c2ccccc2-c2nnn[nH]2)nc1 [Compound 193] | 10% | 180 min | 

Row | SMILES | IC50 [1] | inhibition in vivo at 3 mg/kg (pressor response to AII; [2]) | Assay C Duration (pressor response to AII; [3]) | further results
36 | CCOC(=O)[C@@H]1CC2=CC(=O)CC[C@]2(C)C23O[C@@H]2C[C@@]2(C)[C@@H](CC[C@@]24CCC(=O)O4)[C@H]13 (stereo partly shown) [Compound 10] | 4.9 nM |  |  | inhibition in vivo at 3 mg/kg (pressor response to AII; Rattus norvegicus, intraduodenal, in vivo pressor response, 3 mg/kg intraduodenally): 86%; inhibition in vivo at 30 mg/kg (pressor response to AII; [4]): 100%; Assay C Duration (pressor response to AII; in vivo pressor response, 3 mg/kg intraduodenally): 100 min; Assay C Duration (pressor response to AII; [5]): 240 min
37 | C[C@]12CCC(=O)C=C1C1CC1[C@H]1[C@@H]3CC[C@@]4(CCC(=O)O4)[C@@]3(C)CC3O[C@]312 (stereo partly shown) [Compound 9] | 700 nM |  |  | inhibition in vivo at 30 mg/kg (pressor response to AII; [4]): 80%; inhibition in vivo at 100 mg/kg (pressor response to AII; Rattus norvegicus, intraduodenal, in vivo pressor response, 100 mg/kg intraduodenally): 100%; Assay C Duration (pressor response to AII; [5]): 75 min; Assay C Duration (pressor response to AII; in vivo pressor response, 100 mg/kg intraduodenally): 130 min
38 | COC(=O)[C@@H]1CC2=CC(=O)CC[C@]2(C)C23O[C@@H]2C[C@@]2(C)[C@@H](CC[C@@]2(O)CCC(=O)O)[C@H]13.[K+] (stereo partly shown) [Compound 5] | 200 nM |  |  | inhibition in vivo at 30 mg/kg (pressor response to AII; Rattus norvegicus, intraduodenal): 38%; Assay C Duration (pressor response to AII; [5]): 20 to 30 min
